The NIST ThermoML archive (doi:10.1021/je060271a)
Numbers after ± are expanded uncertainties.

Conditions: Liquid, Vibrating tube method

CCCCCCC(=O)OCC(COC(=O)CCCCCC)(COC(=O)CCCCCC)COC(=O)CCCCCC [pentaerythritol tetraheptanoate]
Conditions | mass density [kg/m3]
343.16 K, 13701 kPa | 950.5 ± 1.2
343.16 K, 13714 kPa | 950.6 ± 1.2
343.16 K, 13726 kPa | 950.6 ± 1.2
343.16 K, 13738 kPa | 950.7 ± 1.2
343.16 K, 13753 kPa | 950.7 ± 1.2
343.16 K, 13764 kPa | 950.6 ± 1.2
343.16 K, 13779 kPa | 950.7 ± 1.2
343.16 K, 13792 kPa | 950.7 ± 1.2
343.16 K, 13806 kPa | 950.8 ± 1.2
343.16 K, 13818 kPa | 950.6 ± 1.2
343.16 K, 14528 kPa | 951.2 ± 1.2
343.16 K, 14542 kPa | 951.2 ± 1.2
343.16 K, 16080 kPa | 952.4 ± 1.2
343.16 K, 16100 kPa | 952.3 ± 1.2
343.16 K, 16118 kPa | 952.2 ± 1.2
343.16 K, 32564 kPa | 962.8 ± 1.2
343.16 K, 32603 kPa | 963 ± 1.2
343.16 K, 32650 kPa | 963.1 ± 1.2
343.16 K, 32688 kPa | 963 ± 1.2
343.17 K, 14556 kPa | 951.3 ± 1.2
343.17 K, 14573 kPa | 951.2 ± 1.2
343.17 K, 14631 kPa | 951.4 ± 1.2
343.17 K, 14645 kPa | 951.3 ± 1.2
343.17 K, 14662 kPa | 951.3 ± 1.2
343.17 K, 14676 kPa | 951.3 ± 1.2
343.17 K, 14690 kPa | 951.3 ± 1.2
343.17 K, 14707 kPa | 951.4 ± 1.2
343.17 K, 14721 kPa | 951.4 ± 1.2
343.17 K, 14735 kPa | 951.3 ± 1.2
343.17 K, 14750 kPa | 951.3 ± 1.2
343.17 K, 14767 kPa | 951.3 ± 1.2
343.17 K, 14782 kPa | 951.4 ± 1.2
343.17 K, 14796 kPa | 951.5 ± 1.2
343.17 K, 14814 kPa | 951.5 ± 1.2
343.17 K, 14828 kPa | 951.3 ± 1.2
343.17 K, 14843 kPa | 951.4 ± 1.2
343.17 K, 14858 kPa | 951.4 ± 1.2
343.17 K, 14873 kPa | 951.5 ± 1.2
343.17 K, 14890 kPa | 951.5 ± 1.2
343.17 K, 14902 kPa | 951.5 ± 1.2
343.17 K, 14922 kPa | 951.4 ± 1.2
343.17 K, 14937 kPa | 951.4 ± 1.2
343.17 K, 14952 kPa | 951.5 ± 1.2
343.17 K, 14966 kPa | 951.6 ± 1.2
343.17 K, 14984 kPa | 951.7 ± 1.2
343.17 K, 14999 kPa | 951.6 ± 1.2
343.17 K, 15013 kPa | 951.5 ± 1.2
343.17 K, 15032 kPa | 951.7 ± 1.2
343.17 K, 15048 kPa | 951.5 ± 1.2
343.17 K, 15063 kPa | 951.4 ± 1.2
343.17 K, 15077 kPa | 951.6 ± 1.2
343.17 K, 15092 kPa | 951.6 ± 1.2
343.17 K, 15110 kPa | 951.6 ± 1.2
343.17 K, 15125 kPa | 951.6 ± 1.2
343.17 K, 15140 kPa | 951.7 ± 1.2
343.17 K, 15158 kPa | 951.6 ± 1.2
343.17 K, 15173 kPa | 951.7 ± 1.2
343.17 K, 15191 kPa | 951.6 ± 1.2
343.17 K, 15206 kPa | 951.6 ± 1.2
343.17 K, 15221 kPa | 951.7 ± 1.2
343.17 K, 15240 kPa | 951.7 ± 1.2
343.17 K, 15255 kPa | 951.6 ± 1.2
343.17 K, 15270 kPa | 951.8 ± 1.2
343.17 K, 15286 kPa | 951.7 ± 1.2
343.17 K, 15305 kPa | 951.7 ± 1.2
343.17 K, 15320 kPa | 951.9 ± 1.2
343.17 K, 15338 kPa | 951.6 ± 1.2
343.17 K, 15354 kPa | 951.8 ± 1.2
343.17 K, 15369 kPa | 951.6 ± 1.2
343.17 K, 15387 kPa | 951.9 ± 1.2
343.17 K, 15403 kPa | 951.8 ± 1.2
343.17 K, 15419 kPa | 952 ± 1.2
343.17 K, 15437 kPa | 951.8 ± 1.2
343.17 K, 15453 kPa | 951.8 ± 1.2
343.17 K, 15469 kPa | 951.8 ± 1.2
343.17 K, 15488 kPa | 951.9 ± 1.2
343.17 K, 15504 kPa | 951.9 ± 1.2
343.17 K, 15520 kPa | 951.9 ± 1.2
343.17 K, 15536 kPa | 951.9 ± 1.2
343.17 K, 15555 kPa | 951.9 ± 1.2
343.17 K, 15571 kPa | 952 ± 1.2
343.17 K, 15587 kPa | 951.9 ± 1.2
343.17 K, 15606 kPa | 951.8 ± 1.2
343.17 K, 15622 kPa | 952 ± 1.2
343.17 K, 15638 kPa | 952.1 ± 1.2
343.17 K, 15655 kPa | 952.1 ± 1.2
343.17 K, 15674 kPa | 952.1 ± 1.2
343.17 K, 15691 kPa | 952 ± 1.2
343.17 K, 15707 kPa | 952 ± 1.2
343.17 K, 15724 kPa | 952.2 ± 1.2
343.17 K, 15743 kPa | 952 ± 1.2
343.17 K, 15759 kPa | 952.1 ± 1.2
343.17 K, 15778 kPa | 952 ± 1.2
343.17 K, 15795 kPa | 952.1 ± 1.2
343.17 K, 15812 kPa | 952.2 ± 1.2
343.17 K, 15831 kPa | 952.1 ± 1.2
343.17 K, 15848 kPa | 952.2 ± 1.2
343.17 K, 15865 kPa | 952.2 ± 1.2
343.17 K, 15884 kPa | 952.1 ± 1.2
343.17 K, 15901 kPa | 952.2 ± 1.2
343.17 K, 15918 kPa | 952.3 ± 1.2
343.17 K, 15938 kPa | 952.3 ± 1.2
343.17 K, 15955 kPa | 952.2 ± 1.2
343.17 K, 15972 kPa | 952.2 ± 1.2
343.17 K, 15989 kPa | 952.3 ± 1.2
343.17 K, 16009 kPa | 952.3 ± 1.2
343.17 K, 16025 kPa | 952.2 ± 1.2
343.17 K, 16042 kPa | 952.3 ± 1.2
343.17 K, 16062 kPa | 952.2 ± 1.2
343.18 K, 14586 kPa | 951.4 ± 1.2
343.18 K, 14600 kPa | 951.2 ± 1.2
343.18 K, 14617 kPa | 951.3 ± 1.2
